Results: the supplement of paper PMC10307832

Assays:
Assay in all cases: relative viability (nuclei count vs DMSO), 5 days (fraction); higher = more cells survive
[1] = system: HARA
Outline: (§1)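 Relative viability was taken as the ratio of nuclei in treated wells to nuclei in vehicle wells. Lung cancer cell lines in 1536-well plates received compounds by pin tool one day after seeding, either one drug alone or a fixed anchor-drug dose plus five library-drug doses (not always all listed) in √10 steps. Nuclei were counted on 4× images after 5 days of treatment, and values are medians of duplicate plates.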

[2] = system: HCC-78
Outline: as §1

[3] = system: NCI-H520
Outline: as §1

[4] = system: UMC-11
Outline: as §1

[5] = system: PC-3 [JPC-3]
Outline: as §1

[6] = system: NCI-H838
Outline: as §1

[7] = system: NCI-H1793
Outline: as §1

[8] = system: COR-L23
Outline: as §1

[9] = system: NCI-H2405
Outline: as §1

[10] = system: NCI-H1651
Outline: as §1

[11] = system: LXF-289
Outline: as §1

[12] = system: LCLC-97TM1
Outline: as §1

[13] = system: NCI-H2347
Outline: as §1

[14] = system: LK-2
Outline: as §1

[15] = system: RERF-LC-KJ
Outline: as §1

[16] = system: LOU-NH91
Outline: as §1

[17] = system: LCLC-103H
Outline: as §1

[18] = system: NCI-H647
Outline: as §1

[19] = system: NCI-H23
Outline: as §1

[20] = system: A-427
Outline: as §1

[21] = system: 201T
Outline: as §1

SMILES: Cc1cn(-c2cc(NC(=O)c3ccc(C)c(Nc4nccc(-c5cccnc5)n4)c3)cc(C(F)(F)F)c2)cn1 [Nilotinib] + Cc1nc(NC(=O)N2CCC[C@H]2C(N)=O)sc1-c1ccnc(C(C)(C)C(F)(F)F)c1 [Alpelisib] (partner 2 µM)
- relative viability ([1]; first compound 0.001 µM): 0.723
- relative viability ([1]; first compound 0.003162 µM): 0.915
- relative viability ([1]; first compound 0.01 µM): 1.06
- relative viability ([1]; first compound 0.03162 µM): 0.551
- relative viability ([1]; first compound 0.1 µM): 0.821
- relative viability ([2]; first compound 0.001 µM): 0.347
- relative viability ([2]; first compound 0.003162 µM): 0.381
- relative viability ([2]; first compound 0.01 µM): 0.444
- relative viability ([2]; first compound 0.03162 µM): 0.34
- relative viability ([2]; first compound 0.1 µM): 0.382
- relative viability ([3]; first compound 0.001 µM): 0.793
- relative viability ([3]; first compound 0.01 µM): 0.986
- relative viability ([3]; first compound 0.03162 µM): 0.719
- relative viability ([3]; first compound 0.1 µM): 1.03
- relative viability ([4]; first compound 0.001 µM): 0.928
- relative viability ([4]; first compound 0.003162 µM): 1.15
- relative viability ([4]; first compound 0.01 µM): 1.07
- relative viability ([4]; first compound 0.1 µM): 1.22
- relative viability ([5]; first compound 0.001 µM): 0.987
- relative viability ([5]; first compound 0.003162 µM): 1.27
- relative viability ([5]; first compound 0.01 µM): 1.26
- relative viability ([5]; first compound 0.03162 µM): 1.05
- relative viability ([5]; first compound 0.1 µM): 0.982
- relative viability ([6]; first compound 0.001 µM): 1.06
- relative viability ([6]; first compound 0.003162 µM): 1.31
- relative viability ([6]; first compound 0.01 µM): 1.26
- relative viability ([6]; first compound 0.1 µM): 1.09
- relative viability ([7]; first compound 0.003162 µM): 0.778
- relative viability ([7]; first compound 0.01 µM): 0.861
- relative viability ([7]; first compound 0.03162 µM): 0.625
- relative viability ([7]; first compound 0.1 µM): 0.454
- relative viability ([8]; first compound 0.001 µM): 0.873
- relative viability ([8]; first compound 0.03162 µM): 0.901
- relative viability ([8]; first compound 0.1 µM): 0.791
- relative viability ([9]; first compound 0.001 µM): 0.808
- relative viability ([9]; first compound 0.003162 µM): 0.733
- relative viability ([9]; first compound 0.01 µM): 0.715
- relative viability ([9]; first compound 0.03162 µM): 0.597
- relative viability ([9]; first compound 0.1 µM): 0.486
- relative viability ([10]; first compound 0.001 µM): 0.915
- relative viability ([10]; first compound 0.003162 µM): 1.15
- relative viability ([10]; first compound 0.01 µM): 1.41
- relative viability ([10]; first compound 0.03162 µM): 0.837
- relative viability ([10]; first compound 0.1 µM): 0.978
- relative viability ([11]; first compound 0.001 µM): 1.02
- relative viability ([11]; first compound 0.003162 µM): 1.26
- relative viability ([11]; first compound 0.01 µM): 1.23
- relative viability ([11]; first compound 0.03162 µM): 0.935
- relative viability ([11]; first compound 0.1 µM): 0.93
- relative viability ([12]; first compound 0.003162 µM): 0.311
- relative viability ([12]; first compound 0.01 µM): 0.279
- relative viability ([12]; first compound 0.03162 µM): 0.22
- relative viability ([12]; first compound 0.1 µM): 0.275
- relative viability ([13]; first compound 0.001 µM): 1.01
- relative viability ([13]; first compound 0.003162 µM): 1.12
- relative viability ([13]; first compound 0.01 µM): 1.03
- relative viability ([13]; first compound 0.03162 µM): 0.981
- relative viability ([13]; first compound 0.1 µM): 1.01
- relative viability ([14]; first compound 0.001 µM): 1.16
- relative viability ([14]; first compound 0.003162 µM): 0.966
- relative viability ([14]; first compound 0.03162 µM): 1
- relative viability ([14]; first compound 0.1 µM): 1.22
- relative viability ([15]; first compound 0.001 µM): 0.788
- relative viability ([15]; first compound 0.003162 µM): 0.831
- relative viability ([15]; first compound 0.01 µM): 0.838
- relative viability ([15]; first compound 0.03162 µM): 0.727
- relative viability ([15]; first compound 0.1 µM): 0.777
- relative viability ([16]; first compound 0.001 µM): 0.741
- relative viability ([16]; first compound 0.003162 µM): 0.7
- relative viability ([16]; first compound 0.01 µM): 0.802
- relative viability ([16]; first compound 0.03162 µM): 0.707
- relative viability ([16]; first compound 0.1 µM): 0.676
- relative viability ([17]; first compound 0.001 µM): 1.03
- relative viability ([17]; first compound 0.003162 µM): 1.09
- relative viability ([17]; first compound 0.03162 µM): 1
- relative viability ([17]; first compound 0.1 µM): 0.956
- relative viability ([18]; first compound 0.001 µM): 0.956
- relative viability ([18]; first compound 0.003162 µM): 1.16
- relative viability ([18]; first compound 0.03162 µM): 0.958
- relative viability ([18]; first compound 0.1 µM): 0.872
- relative viability ([19]; first compound 0.001 µM): 0.654
- relative viability ([19]; first compound 0.003162 µM): 0.784
- relative viability ([19]; first compound 0.01 µM): 0.773
- relative viability ([19]; first compound 0.03162 µM): 0.536
- relative viability ([19]; first compound 0.1 µM): 0.665
- relative viability ([20]; first compound 0.001 µM): 1.07
- relative viability ([20]; first compound 0.01 µM): 1.13
- relative viability ([20]; first compound 0.03162 µM): 1.06
- relative viability ([20]; first compound 0.1 µM): 0.808
- relative viability ([21]; first compound 0.003162 µM): 1.11
- relative viability ([21]; first compound 0.01 µM): 1.09
- relative viability ([21]; first compound 0.1 µM): 1.07
